{
  "source": "patent US10004253B1",
  "about": "“Method for increasing the health condition of crustaceans in aquaculture, survival rate and pigmentation” (priority 2017, dated 2018)",
  "key": {"[1]": {"test_system": "white shrimp L. vannamei", "assay": "Different sources and doses of carotenoids in balanced feed, 60 day treatment, Example 6", "format": "in vivo", "conditions": "75 ppm in feed", "source_text": "6. —Effects of different sources and doses of carotenoids in the balanced feed, growout, survival, and deposition of pigments in white shrimp L. vannamei. The following is a review of the results obtained regarding the dosing of Lutein/Zeaxanthin Long Chain Diesters in the feed, as compared to feed that contained synthetic Astaxanthin (Carophyll Pink). The average survival and final weight results of the experimental work with shrimp L. vannamei results, obtained after a 60 day treatment, are shown in Table V: […]"}, "[2]": {"test_system": "P. monodon shrimp", "assay": "Total pigment and Astaxanthin enantiomers deposited, commercial ponds, Example 7", "format": "in vivo", "conditions": "feed with 60 ppm, sampled at three grams weight, lyophilized", "description": "The concentration of total pigment in crustacean specimens extract was carried out by UV/VIS spectrophotometric methods measurement absorbance at 470 nm (A 1%=2100 in Hexane).\nThe Astaxanthin enantiometers deposited by the crustaceans specimens, or from its different organs, were quantified by HPLC after derivatization into the corresponding dicamphanates (Vecchi and Muller 1979).\n7. —Comparison of the different Astaxanthin enantiomers deposited by P. monodon that were given the following three different diets: commercial feed as control; commercial feed containing 120 ppm of Lutein or Zeaxanthin Long Chain Diesters Concentrate; and commercial feed that contained 60 ppm of synthetic Astaxanthin (Carophyll Pink). […]\nAt three grams weight, the ponds were sampled, the specimens were lyophillized and the dehydrated samples were ground and analyzed.\nThe concentration of total pigment in the crustacean specimens extract was carried out by UV/Vis spectrophotometric methods measurement absorbance at 470 nm (A 1%=2100 in hexane).\nThe analysis of Astaxanthin R/S enantiomers deposited by the crustacean specimens, were quantified by HPLC after derivatization into the corresponding dicamphanates (Vecchi and Muller 1979), in order to differentiate the Astaxanthin enantiomers."}},
  "data": [
    {"smiles": "CC1=C(/C=C/C(C)=C/C=C/C(C)=C/C=C/C=C(C)/C=C/C=C(C)/C=C/C2=C(C)C(=O)[C@@H](O)CC2(C)C)C(C)(C)C[C@H](O)C1=O", "note": "[ROCHE Astaxanthin, Astaxanthin]", "values": [
      {"measurement": "FINAL WEIGHT grs", "setting": "[1]", "result": 7.77, "unit": "grs"},
      {"measurement": "SURVIVAL %", "setting": "[1]", "result": 63.33, "unit": "%"},
      {"measurement": "ASTAX. IN HEAD (hepathopanchreas)", "setting": "[1]; HPLC", "result": "29.2 micrograms of Astaxanthin per gram of tissue"},
      {"measurement": "ASTAX. IN MUSCLE", "setting": "[1]; HPLC", "result": "11.4 micrograms of Astaxanthin per gram of tissue"},
      {"measurement": "ASTAX. IN SHELL (carapace)", "setting": "[1]; HPLC", "result": "75.1 micrograms of Astaxanthin per gram of tissue"},
      {"measurement": "Concentration of total pigment in specimens extract (UV/Vis 470 nm)", "setting": "[2]", "result": 152.5, "unit": "ppm"}
    ]}
  ]
}
